In patent publication US20140163095A1, “USE OF ERIBULIN IN THE TREATMENT OF BREAST CANCER” (priority 2012, published 2014):

System: locally advanced or metastatic breast cancer
Assay: Phase III clinical trial comparing eribulin mesylate and capecitabine
[1] = of patients with any new metastasis

Procedure: A global, randomized, open-label, two-parallel-arm, phase III clinical trial of eribulin (eribulin mesylate) and capecitabine was performed.
This study randomized 1102 patients who had up to three prior chemotherapy regimens, and no more than two prior regimens for advanced and/or metastatic disease. The prior regimens must have included an anthracycline and a taxane, either in the (neo) adjuvant setting or for locally advanced or metastatic disease. Patients must have had documented evidence of progression during or after their most recent anti-cancer therapy. […] Patients were randomized to receive either eribulin mesylate as an intravenous (IV) infusion of 1.4 mg/m^2 over 2-5 minutes on days 1 and 8 every 21 days or capecitabine as an oral administration of 2.5 g/m^2/day administered twice daily in two equal doses on days 1 to 14 every 21 days.
This study was designed to have co-primary endpoints, overall survival (OS) and progression free survival (PFS), with alpha spending 0.04 and 0.01, respectively.
Progression events (disease progression determined by Response Evaluation Criteria in Solid Tumors [RECIST, version 1.0]) were categorized as: (i) emergence of a new lesion/metastasis, defined here as a lesion identified at progression that had not been previously reported, (ii) increase in size of an existing (previously reported) lesion (target or non-target), and (iii) other PFS event, e.g., death, clinical progression, or censoring. Investigator review of disease progression was used as the primary analysis for these investigations. Where progression was determined by investigator review, no further scans were performed, leading to informative censoring of independent review data (approximately 20%). The number of new metastases observed by independent review was considered an under-estimate due to this considerable informative censoring. OS and PFS were compared between treatment arms using two-sided, stratified (geographic region and HER2 status) log-rank tests. The correlation between progression events and OS was investigated by Cox regression, incorporating the event as a time-dependent covariate. New metastasis-free survival, defined as time from randomization to death or progression due to appearance of a new metastasis (whichever occurs earlier), was also analyzed.

SMILES: CCCCCOC(=O)Nc1nc(=O)n([C@@H]2O[C@H](C)[C@@H](O)[C@H]2O)cc1F [Capecitabine, reference compound]
- median overall survival (OS) (all randomized patients): 14.5 months
- median progression-free survival (PFS) (all randomized patients): 4.2 months
- New metastasis site: Bone, patients (count): 62
- New metastasis site: Breast, patients (count): 13
- New metastasis site: CNS (brain/spine), patients (count): 25
- New metastasis site: Chest wall, patients (count): 5
- New metastasis site: Liver, patients (count): 74
- New metastasis site: Lung, patients (count): 76
- New metastasis site: Lymph nodes, patients (count): 55
- New metastasis site: Other, patients (count): 53
- New metastasis site: Skin, patients (count): 26
- Number of patients with any new metastasis observed (count, investigator review, intent-to-treat): 316
- patients with progression due to a new metastasis (investigator review): 52.0%
- patients with progression due to increase in the size of a pre-existing lesion (investigator review): 23.5%
- patients with progression due to other reasons such as death and clinical progression (investigator review): 24.5%
- patients with any new metastasis observed, percentage (investigator review, intent-to-treat): (57.7) %
- New metastasis site: Bone, percentage [1]: (19.6) %
- New metastasis site: Breast, percentage [1]: (4.1) %
- New metastasis site: CNS (brain/spine), percentage [1]: (7.9) %
- New metastasis site: Chest wall, percentage [1]: (1.6) %
- New metastasis site: Liver, percentage [1]: (23.4) %
- New metastasis site: Lung, percentage [1]: (24.1) %
- New metastasis site: Lymph nodes, percentage [1]: (17.4) %
- New metastasis site: Other, percentage [1]: (16.8) %
- New metastasis site: Skin, percentage [1]: (8.2) %
- Median OS (patients whose disease progressed due to other events): 15.5 months
- Median OS (patients with progression due to new metastasis): 12.9 months
- Median OS (patients with progression due to pre-existing lesion): 17.4 months
